# Active and inactive are the calls of the source.
# Tests used:
# [1] = Luminescence Cell-Based Dose Retest to Confirm Inhibitors of Cancer Stem Cells. [Related pubchem assays (depositor defined):AID2717, AID2721]; type: functional; settings: Homo sapiens
# [2] = alpha-synuclein stem-loop luciferase translation blockers – H4 neuroglioma cells, luminescence, confirmation (AID 1988); type: functional, cell-based
# [3] = luciferase reporter signal suppression in cells – H4 neuroglioma cells, luminescence, dose response (AID 1990); type: functional, cell-based
# [4] = Luminescence Cell-Based Dose Response HTS to Identify Inhibitors of 5'UTR Stem-Loop Driven Prion Protein mRNA Translation in H4 Neuroglioblastoma Cells. [Related pubchem assays: 1827 (Project Summary), 1813 (Primary HTS)]; type: functional
# Cytochrome P450 2C19 = Cytochrome P450 2C19 (Homo sapiens, UniProt P33261); test: Cytochrome panel assay with activity outcomes. Panel member name: p450-cyp2c19 Compounds with AC50 equal or less than 10 uM are considered active; type: functional
# Cytochrome P450 2C19, sequence (P33261 whole entry): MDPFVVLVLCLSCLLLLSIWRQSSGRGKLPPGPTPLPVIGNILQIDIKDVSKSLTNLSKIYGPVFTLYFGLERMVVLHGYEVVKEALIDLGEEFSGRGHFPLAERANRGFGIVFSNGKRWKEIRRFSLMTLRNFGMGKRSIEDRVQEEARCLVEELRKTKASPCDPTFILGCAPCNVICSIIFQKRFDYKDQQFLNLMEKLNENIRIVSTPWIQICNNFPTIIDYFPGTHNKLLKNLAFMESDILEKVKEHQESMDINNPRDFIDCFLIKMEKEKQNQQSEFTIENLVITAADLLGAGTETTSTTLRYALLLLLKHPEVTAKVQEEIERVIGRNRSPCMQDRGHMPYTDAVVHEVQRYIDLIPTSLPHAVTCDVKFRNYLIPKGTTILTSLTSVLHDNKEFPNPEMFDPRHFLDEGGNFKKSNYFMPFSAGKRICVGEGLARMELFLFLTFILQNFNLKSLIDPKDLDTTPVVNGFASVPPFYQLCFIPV
# [5] = viability of uninfected HEp-2 cells – cell-based, HTS, cytotoxicity control for RSV inhibitor project, dose response (AID 2410); type: functional; settings: human respiratory syncytial virus
# [6] = Luminescence Cell-Based Dose Confirmation HTS to Identify Inhibitors of Platelet Dense Granule Release. [Related pubchem assays: 1663 (Primary HTS), 1678 (Summary of Project)]; type: functional
# [7] = molecular target: Luciferin 4-monooxygenase (Photinus pyralis, UniProt P08659); test: inhibition of purified Photinus pyralis luciferase – biochemical, luminescence, dose response (AID 1891)
# Luciferin 4-monooxygenase, sequence (P08659 whole entry): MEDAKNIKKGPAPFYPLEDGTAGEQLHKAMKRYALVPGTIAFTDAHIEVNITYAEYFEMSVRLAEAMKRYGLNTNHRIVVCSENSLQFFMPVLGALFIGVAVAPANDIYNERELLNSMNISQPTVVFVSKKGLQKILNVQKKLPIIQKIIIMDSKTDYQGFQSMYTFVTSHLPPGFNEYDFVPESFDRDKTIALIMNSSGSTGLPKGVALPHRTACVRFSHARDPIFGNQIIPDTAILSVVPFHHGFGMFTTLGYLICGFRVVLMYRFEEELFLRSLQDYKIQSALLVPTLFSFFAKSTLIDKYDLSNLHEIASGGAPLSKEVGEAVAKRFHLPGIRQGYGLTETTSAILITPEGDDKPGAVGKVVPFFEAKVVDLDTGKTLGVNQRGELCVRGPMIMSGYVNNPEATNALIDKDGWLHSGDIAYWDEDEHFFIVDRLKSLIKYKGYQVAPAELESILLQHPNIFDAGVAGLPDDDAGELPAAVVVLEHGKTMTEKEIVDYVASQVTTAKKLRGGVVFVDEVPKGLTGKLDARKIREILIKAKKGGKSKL
# Cytochrome P450 2C9 = Cytochrome P450 2C9 (Homo sapiens, UniProt P11712)
# Cytochrome P450 2C9, sequence (P11712 whole entry): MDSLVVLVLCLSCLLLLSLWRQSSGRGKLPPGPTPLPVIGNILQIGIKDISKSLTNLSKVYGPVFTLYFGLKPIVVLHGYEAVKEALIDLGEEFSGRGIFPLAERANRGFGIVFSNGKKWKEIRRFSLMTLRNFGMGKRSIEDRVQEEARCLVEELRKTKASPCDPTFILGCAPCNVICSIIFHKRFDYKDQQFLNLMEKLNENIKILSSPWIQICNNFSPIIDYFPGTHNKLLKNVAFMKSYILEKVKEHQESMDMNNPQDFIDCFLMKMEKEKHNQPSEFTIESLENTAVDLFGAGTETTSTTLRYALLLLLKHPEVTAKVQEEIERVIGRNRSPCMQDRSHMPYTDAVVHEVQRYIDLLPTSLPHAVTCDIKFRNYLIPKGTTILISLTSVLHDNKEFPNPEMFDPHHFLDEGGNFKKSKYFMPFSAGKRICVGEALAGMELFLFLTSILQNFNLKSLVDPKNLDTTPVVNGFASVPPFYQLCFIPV
# Cytochrome P450 3A4 = Cytochrome P450 3A4 (Homo sapiens, UniProt P08684);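 note: CYP3A4 tested as one member of a cytochrome P450 panel screen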
# Cytochrome P450 3A4, sequence (P08684 whole entry): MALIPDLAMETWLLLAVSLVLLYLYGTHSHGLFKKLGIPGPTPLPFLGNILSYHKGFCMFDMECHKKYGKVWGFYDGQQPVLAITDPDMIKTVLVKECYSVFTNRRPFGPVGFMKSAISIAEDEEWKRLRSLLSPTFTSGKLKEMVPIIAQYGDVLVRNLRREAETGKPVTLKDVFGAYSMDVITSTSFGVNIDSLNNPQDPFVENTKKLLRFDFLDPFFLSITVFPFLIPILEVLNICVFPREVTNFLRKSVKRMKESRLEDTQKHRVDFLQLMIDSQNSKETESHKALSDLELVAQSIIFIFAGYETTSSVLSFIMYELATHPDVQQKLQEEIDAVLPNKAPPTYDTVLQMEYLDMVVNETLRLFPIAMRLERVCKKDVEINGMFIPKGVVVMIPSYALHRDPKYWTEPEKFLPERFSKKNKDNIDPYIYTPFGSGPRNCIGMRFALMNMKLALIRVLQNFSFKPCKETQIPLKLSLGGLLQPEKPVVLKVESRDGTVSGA
# [8] = NIH3T3 cell viability loss – ATP luminescence, mouse fibroblasts, counter-screen, dose response (AID 2010); type: functional, cell-based;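 note: cells exposed to compound for about 90 hours before reading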
# [9] = Trypanosoma cruzi growth suppression in host cells – NIH3T3 host cells, beta-gal luminescence, confirmation (AID 2044); type: functional, cell-based;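 note: intracellular parasites grown in NIH/3T3 mouse fibroblasts as host cells; luminescent beta-galactosidase reporter signal from transgenic T. cruzi replicating inside host cells; inhibitors lower the luminescence signal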
# Streptococcus = test: GAS UMAA2166 growth inhibition – luminescence, BacTiterGlo, counter-screen for streptokinase expression inhibitor project, dose response (AID 1915); type: functional, organism-based;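 note: potency for reduction of bacterial viability or growth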
# [10] = system: Streptococcus sp. 'group A'; test: Streptococcus pyogenes SK(-)GAS viability under kanamycin – luminescence, BacTiterGlo, confirmation, counter-screen for streptokinase expression inhibitor project, dose response (AID 1900); type: functional, organism-based
structure (smiles),measurement,setting,value
COc1ccc(NS(=O)(=O)c2cc(NC(=O)c3ccc(O)nc3)ccc2N2CCCC2)cc1,AC50,[1],0.952 µM (active)
CCC(C)Nc1nc(N)c([N+](=O)[O-])c(Nc2ccccc2OC)n1 (centres undefined),EC50,[2],> 120 µM (not active)
same,EC50,[3],13.5 µM (active)
same,EC50,[4],> 120 µM (not active)
Cc1cc(NC(=O)COC(=O)c2ccc(NS(=O)(=O)c3ccc(C)c(C)c3)cc2)no1,AC50,Cytochrome P450 2C19; read-out: AC50,14.1 µM (inconclusive)
Cc1cc(-c2c(C)[nH]n(-c3ccccc3)c2=O)n(-c2ccccc2)n1,AC50,Cytochrome P450 2C19; read-out: AC50,20 µM (inconclusive)
O=C(CN1CCN(c2cccc(C(F)(F)F)c2)CC1)Nc1cccc(C(F)(F)F)c1,CC50,[5],> 50 µM (active)
Cc1cc(=O)n2nc(N3CCCC(C(=O)NCc4ccccc4)C3)sc2n1 (centres undefined),EC50,[6],> 112 µM (not active)
same,EC50,[7],> 112 µM (not active)
CC1=C(C(=O)OC2CCCCC2)C(c2ccc(C)o2)C2=C(O)CC(C)(C)CC2=N1 (centres undefined),AC50,[1],1.38 µM (active)
COc1ccc(OC)c(-n2c(SCC(N)=O)nnc2-c2c[nH]c3ccccc23)c1,EC50,[6],> 112 µM (not active)
same,EC50,[7],> 112 µM (not active)
COc1ccc(-n2c(=O)c(C)nc3cnc(Nc4cccc(OC)c4)nc32)cc1,AC50,Cytochrome P450 2C9,39.8 µM (inconclusive)
same,AC50,Cytochrome P450 3A4,10 µM (inconclusive)
same,AC50,Cytochrome P450 2C19; read-out: AC50,39.8 µM (inconclusive)
O=C(N/N=C/c1ccc[nH]1)c1sc2ccccc2c1Cl,EC50,[8],> 30 µM (not active)
same,AC50,[1],1.94 µM (active)
same,EC50,[9],2.3 µM (active)
COc1ccc2cc1Oc1ccc(cc1)CC1c3c(cc(OC)c4c3Oc3cc5c(cc3O4)CCNC5C2)CCN1C (centres undefined),EC50,[8],6.68 µM (active)
same,EC50,[2],8.03 µM (active)
same,EC50,[3],> 120 µM (not active)
same,EC50,[4],8.28 µM (active)
same,EC50,[9],0.193 µM (active)
CN1CCc2[nH]nc(-c3n[nH]c4c3CN(C)CC4)c2C1,AC50,Cytochrome P450 2C19,inconclusive
CCC(C)(C)c1ccc(Oc2cccc(C(=O)O)c2)cc1,AC50,Cytochrome P450 2C9,5.01 µM (inconclusive)
COc1cc(C)ccc1OCCCOc1ccccc1Cl,AC50,Cytochrome P450 2C9,12.6 µM (inconclusive)
same,AC50,Cytochrome P450 3A4,17.8 µM (inconclusive)
O=C(c1cc2ccccc2o1)N(Cc1nnc(-c2ccccc2Cl)o1)C1CC1,CC50,[5],25.9 µM (active)
Cc1ccc(S(=O)(=O)NCc2ccc(C(=O)NC3CC3)cc2)cc1,EC50,[6],28.1 µM (active)
same,EC50,[7],> 112 µM (not active)
CCC/C(=C1/c2ccccc2C(=O)N1c1ccccc1)c1ccc2c(c1)OCCO2,AC50,[1],3.85 µM (active)
Clc1ccccc1Cn1c(/C=C/c2ccco2)nc2ccccc21,AC50,[1],2.86 µM (active)
Cn1cc(S(=O)(=O)N2CCCC2)cc1C(=O)NCCc1ccccc1,EC50,[6],> 112 µM (not active)
same,EC50,[7],> 112 µM (not active)
O=[N+]([O-])c1ccc(O)c(-c2nc(-c3ccccc3)c(-c3cccs3)[nH]2)c1,EC50,Streptococcus,2.38 µM (active)
same,AC50,[1],0.662 µM (active)
same,EC50,[10],1.23 µM (active)
same,EC50,[2],> 120 µM (not active)
same,EC50,[3],18.2 µM (active)
same,EC50,[4],> 120 µM (not active)
COc1ccc(OCCCC(=O)OC(C)C(=O)Nc2ccc(NC(C)=O)cc2)cc1 (centres undefined),EC50,[6],> 112 µM (not active)
same,EC50,[7],> 112 µM (not active)
CN1CCN(C(=O)CCN2C(=O)/C(=C/c3cccc(Br)c3)SC2=S)CC1,CC50,[5],18.8 µM (active)
CCCc1cc(C(=O)N2CCCC(N3CCN(c4ccccc4F)CC3)C2)n(C)n1 (centres undefined),EC50,[6],21.6 µM (active)
same,EC50,[7],> 112 µM (not active)
C/C(=N\NC(=O)C1CC1)c1ccc(C(C)(C)C)cc1,CC50,[5],34.3 µM (active)
CCOC(=O)C1CCN(C(=O)c2oc3ccc(S(=O)(=O)N4CCCCCC4)cc3c2C)CC1,CC50,[5],17.7 µM (active)
CCc1ccc(C(=O)Nc2cccc(-c3nn[nH]n3)c2)s1,EC50,[6],> 112 µM (not active)
same,EC50,[7],3.49 µM (active)

# Source: ChEMBL document CHEMBL1201862, “PubChem BioAssay data set” (2004)
